Reference: publication PMC6979073, “Control of glutamate release by complexes of adenosine and cannabinoid receptors” (BMC Biology, 2020)
Read-outs that look alike come from different tables or passages of the source.

What was measured:
[1] = system: rat striatal synaptosomes; test: Depolarization-evoked glutamate release from striatal synaptosomes; type: cell-based; details: for Evoked glutamate release, expressed as the difference in % of the control value: WIN55,212-2 0.1 μM, n = 6
A2AR-CB1R heterotetramer = A2AR-CB1R heterotetramer (Homo sapiens, UniProt P21554+P29274)
Chain of A2AR-CB1R heterotetramer (P29274 whole entry): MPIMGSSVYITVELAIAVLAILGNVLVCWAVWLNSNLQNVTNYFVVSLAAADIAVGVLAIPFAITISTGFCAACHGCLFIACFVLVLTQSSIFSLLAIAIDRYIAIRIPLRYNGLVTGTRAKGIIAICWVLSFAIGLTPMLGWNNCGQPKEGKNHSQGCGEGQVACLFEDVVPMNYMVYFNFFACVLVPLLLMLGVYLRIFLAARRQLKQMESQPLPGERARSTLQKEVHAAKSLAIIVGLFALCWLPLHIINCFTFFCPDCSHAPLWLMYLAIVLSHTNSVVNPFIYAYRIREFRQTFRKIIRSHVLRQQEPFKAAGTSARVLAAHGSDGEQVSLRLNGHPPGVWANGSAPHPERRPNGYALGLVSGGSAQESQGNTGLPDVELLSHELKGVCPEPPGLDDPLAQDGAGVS
Chain of A2AR-CB1R heterotetramer (P21554 whole entry): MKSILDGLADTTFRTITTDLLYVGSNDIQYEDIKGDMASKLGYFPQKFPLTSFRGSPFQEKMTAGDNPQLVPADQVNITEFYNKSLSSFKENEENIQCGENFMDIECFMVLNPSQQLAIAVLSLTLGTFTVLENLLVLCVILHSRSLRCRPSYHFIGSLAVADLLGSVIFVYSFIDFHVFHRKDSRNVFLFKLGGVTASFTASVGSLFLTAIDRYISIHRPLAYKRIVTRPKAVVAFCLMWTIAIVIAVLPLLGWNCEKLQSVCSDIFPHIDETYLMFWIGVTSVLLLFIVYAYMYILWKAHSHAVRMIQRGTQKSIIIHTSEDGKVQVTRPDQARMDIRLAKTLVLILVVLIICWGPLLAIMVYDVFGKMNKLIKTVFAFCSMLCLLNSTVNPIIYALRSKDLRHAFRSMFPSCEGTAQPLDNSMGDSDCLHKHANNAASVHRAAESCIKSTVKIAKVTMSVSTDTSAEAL

A2AR-CB1R heteromer = A2AR-CB1R heteromer (Homo sapiens, UniProt P21554+P29274)
Chain of A2AR-CB1R heteromer (P29274 whole entry): as the sequence (P29274 whole entry) above
Chain of A2AR-CB1R heteromer (P21554 whole entry): as the sequence (P21554 whole entry) above

CB1R [2] = biological target: CB1R (Homo sapiens, UniProt P21554); details: CP55940 200 nM; cells transfected with CB1R
Chain of CB1R (Homo sapiens, UniProt P21554) (P21554 whole entry): as above

CB1R [3] = system: CB1R; set-up: method as in PMID 16365309, PMID 1331766; details: cited from earlier work
CB1R [4] = system: CB1R; set-up: method as in PMID 16365309, PMID 1331766; details: cited from earlier work; remark: listed apart in the source
[5] = PTX 10 ng/ml overnight or CTX 100 ng/ml 2 h

CCNC(=O)[C@H]1O[C@@H](n2cnc3c(N)nc(NCCc4ccc(CCC(=O)O)cc4)nc32)[C@H](O)[C@@H]1O [CGS21680]
Effect on the inhibition of glutamate release by 0.01 and 0.03 μM of WIN55,212-2 ([1]; CGS21680 0.03 μM or SCH58261 0.1 μM): fully prevented
Effect of co-application on the effect of WIN55,212-2 on glutamate release ([1]; CGS21680 0.03 μM plus SCH58261 0.1 μM): did not significantly modify

CCCCCCC(C)(C)c1ccc([C@@H]2C[C@H](O)CC[C@H]2CCCO)c(O)c1 [CP55940]
Effect on CGS21680-mediated increase in cAMP (A2AR-CB1R heterotetramer): counteracted CGS21680-mediated increase in cAMP
Effect on the concentration-response curve of NECA (Gs activation) (A2AR-CB1R heteromer; CP55940 10 μM, Gαs-YFP): did not produce a significant shift
Concentration-response curve of ligand-induced changes in BRET: G protein coupling (A2AR-CB1R heteromer; cells co-transfected with either Gαs-, Gαi1- or Gαq-YFP): could only be obtained when the cells were transfected with Gαi-YFP
Effect on cAMP formation induced by forskolin (500 nM) (CB1R [2]): decreased cAMP formation

Nc1nc2c(cnn2CCc2ccccc2)c2nc(-c3ccco3)nn12 [SCH58261]
Effect of co-application on the effect of WIN55,212-2 on glutamate release [1]: did not significantly modify
Effect on the concentration-response inhibitory curve of WIN55,212-2 [1]: shifted to the right
Effect on the inhibition of glutamate release by 0.01 and 0.03 μM of WIN55,212-2 [1]: fully prevented
Effect on evoked glutamate release ([1]; SCH58261 10 μM): significantly inhibited the evoked glutamate release

Cc1c(C(=O)c2cccc3ccccc23)c2cccc3c2n1[C@H](CN1CCOCC1)CO3 [WIN55,212-2]
Evoked glutamate release, expressed as the difference in % of the control value ([1]; synaptosomes incubated 4 h at 4 °C with PTX (2 μg/ml)): 114.6% ± 6.8
Evoked glutamate release, expressed as the difference in % of the control value ([1]; toxin-naïve synaptosomes): 82.9% ± 3.6
Further inhibition of evoked glutamate release in the presence of SCH58261 (10 μM) ([1]; WIN55212-2 0.3 μM): could not be further inhibited
EC50 ([1]; WIN55,212-2 alone, 30 mM KCl, read-out: EC50 of inhibition of evoked glutamate release): 5.5 nM
Maximal effect on evoked glutamate release ([1]; at 0.03 μM): 77.0 ± 3.0 % of DMSO control
Potency relative to CP55940 at inhibiting forskolin-induced cAMP production (CB1R [3]): less potent
Potency relative to CP55940 at eliciting Gq-dependent intracellular calcium increase (CB1R [4]): more

cholera toxin [CTX]
Effect on CGS21680-induced cAMP increase (A2AR-CB1R heterotetramer): blockade
Effect on CP55940-induced cAMP decrease (A2AR-CB1R heterotetramer): also blocked

pertussis toxin [PTX]
Effect on CGS21680-induced cAMP increase (A2AR-CB1R heterotetramer; [5]): also blocked
Effect on CP55940-induced cAMP decrease (A2AR-CB1R heterotetramer; [5]): blockade
Effect on WIN55,212-2 (0.1 μM) inhibition of glutamate release ([1]; PTX 2 μg/ml, 4 h at 4 °C): fully prevented this inhibition
